Results reported in patent publication US10975098B2, “Substituted aminothiazolopyrimidinediones for the treatment of virus infection” (Hoffmann-La Roche Inc., priority 2015, dated 2021).

Columns and labels:
human TLR8 = molecular target: T1, human TLR8 (Homo sapiens, UniProt Q9NR97); test: HEK293-Blue-hTLR-8 cells assay (SEAP reporter); format: cell-based; conditions: TLR8 agonism, 20 hours incubation, 1% DMSO
T1 sequence (Q9NR97 27-1041): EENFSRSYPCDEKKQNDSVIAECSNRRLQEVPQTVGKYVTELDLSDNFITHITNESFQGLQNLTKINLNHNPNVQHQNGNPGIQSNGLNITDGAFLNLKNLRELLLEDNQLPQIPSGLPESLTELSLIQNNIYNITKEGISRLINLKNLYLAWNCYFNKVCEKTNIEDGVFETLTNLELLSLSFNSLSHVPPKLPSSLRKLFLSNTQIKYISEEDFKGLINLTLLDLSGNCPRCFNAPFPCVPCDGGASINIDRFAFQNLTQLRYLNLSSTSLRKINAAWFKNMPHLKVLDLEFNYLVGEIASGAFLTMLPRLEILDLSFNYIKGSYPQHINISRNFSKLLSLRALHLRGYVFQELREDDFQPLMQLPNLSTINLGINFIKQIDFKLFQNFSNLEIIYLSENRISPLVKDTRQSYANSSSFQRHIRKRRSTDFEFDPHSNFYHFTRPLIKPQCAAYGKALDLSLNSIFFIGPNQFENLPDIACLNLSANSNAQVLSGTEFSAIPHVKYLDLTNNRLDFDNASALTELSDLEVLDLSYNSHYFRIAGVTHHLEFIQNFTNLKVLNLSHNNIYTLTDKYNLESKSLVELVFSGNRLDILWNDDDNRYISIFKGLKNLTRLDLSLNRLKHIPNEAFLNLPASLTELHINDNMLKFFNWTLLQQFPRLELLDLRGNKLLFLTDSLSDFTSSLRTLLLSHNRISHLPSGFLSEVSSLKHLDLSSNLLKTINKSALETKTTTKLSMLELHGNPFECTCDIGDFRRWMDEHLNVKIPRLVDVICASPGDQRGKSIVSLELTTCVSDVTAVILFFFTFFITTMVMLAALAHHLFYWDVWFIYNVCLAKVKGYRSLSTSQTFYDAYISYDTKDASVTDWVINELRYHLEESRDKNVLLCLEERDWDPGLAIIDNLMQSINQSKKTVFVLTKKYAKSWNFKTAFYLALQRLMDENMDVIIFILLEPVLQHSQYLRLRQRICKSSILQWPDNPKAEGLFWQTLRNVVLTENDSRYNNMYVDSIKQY
Text: HEK293-Blue-hTLR-8 cells assay:
(§1) A stable HEK293-Blue-hTLR-8 cell line was purchased from InvivoGen (Cat. #: hkb-htlr8, San Diego, Calif., USA). These cells were designed for studying the stimulation of human TLR8 by monitoring the activation of NF-κB. A SEAP (secreted embryonic alkaline phosphatase) reporter gene was placed under the control of the IFN-β minimal promoter fused to five NF-κB and AP-1-binding sites. The SEAP was induced by activating NF-κB and AP-1 via stimulating HEK-Blue hTLR8 cells with TLR8 ligands. Therefore the reporter expression was regulated by the NF-κB promoter upon stimulation of human TLR8. The cell culture supernatant SEAP reporter activity was determined using QUANTI-Blue™ kit (Cat. #: rep-qb 1, Invivogen, San Diego, Calif., USA) at a wavelength of 640 nm, a detection medium that turns purple to blue in the presence of alkaline phosphatase.
(§2) HEK293-Blue-hTLR8 cells were incubated at a density of 250,000-450,000 cells/mL in a volume of 180 μL in a 96-well plate in Dulbecco's Modified Eagle's medium (DMEM) containing 4.5 g/L glucose, 50 U/mL penicillin, […], […], 2 mM L-glutamine, 10% (v/v) heat-inactivated fetal bovine serum for 24 hours. Then the HEK293-Blue-hTLR-8 cells were incubated with addition of 20 μL test compound in a serial dilution in the presence of final DMSO at 1% and perform incubation under 37° C. in a CO2 incubator for 20 hours. Then 20 μL of the supernatant from each well was incubated with 180 μL Quanti-blue substrate solution at 37° C. for 1-3 hours and the absorbance was read at 620-655 nm using a spectrophotometer. The signalling pathway that TLR8 activation leads to downstream NF-κB activation has been widely accepted, and therefore similar reporter assay was also widely used for evaluating TLR8 agonist.
(§3) The compounds of the present invention were tested in the above assay for their TLR7 and TLR8 agonism activities as described herein and results are listed in Table 1.

human TLR7 = molecular target: T2, human TLR7 (Homo sapiens, UniProt Q9NYK1); test: HEK293-Blue-hTLR-7 cells assay (SEAP reporter); format: cell-based; conditions: TLR7 agonism, 20 hours incubation, 1% DMSO
T2 sequence (Q9NYK1 27-1049): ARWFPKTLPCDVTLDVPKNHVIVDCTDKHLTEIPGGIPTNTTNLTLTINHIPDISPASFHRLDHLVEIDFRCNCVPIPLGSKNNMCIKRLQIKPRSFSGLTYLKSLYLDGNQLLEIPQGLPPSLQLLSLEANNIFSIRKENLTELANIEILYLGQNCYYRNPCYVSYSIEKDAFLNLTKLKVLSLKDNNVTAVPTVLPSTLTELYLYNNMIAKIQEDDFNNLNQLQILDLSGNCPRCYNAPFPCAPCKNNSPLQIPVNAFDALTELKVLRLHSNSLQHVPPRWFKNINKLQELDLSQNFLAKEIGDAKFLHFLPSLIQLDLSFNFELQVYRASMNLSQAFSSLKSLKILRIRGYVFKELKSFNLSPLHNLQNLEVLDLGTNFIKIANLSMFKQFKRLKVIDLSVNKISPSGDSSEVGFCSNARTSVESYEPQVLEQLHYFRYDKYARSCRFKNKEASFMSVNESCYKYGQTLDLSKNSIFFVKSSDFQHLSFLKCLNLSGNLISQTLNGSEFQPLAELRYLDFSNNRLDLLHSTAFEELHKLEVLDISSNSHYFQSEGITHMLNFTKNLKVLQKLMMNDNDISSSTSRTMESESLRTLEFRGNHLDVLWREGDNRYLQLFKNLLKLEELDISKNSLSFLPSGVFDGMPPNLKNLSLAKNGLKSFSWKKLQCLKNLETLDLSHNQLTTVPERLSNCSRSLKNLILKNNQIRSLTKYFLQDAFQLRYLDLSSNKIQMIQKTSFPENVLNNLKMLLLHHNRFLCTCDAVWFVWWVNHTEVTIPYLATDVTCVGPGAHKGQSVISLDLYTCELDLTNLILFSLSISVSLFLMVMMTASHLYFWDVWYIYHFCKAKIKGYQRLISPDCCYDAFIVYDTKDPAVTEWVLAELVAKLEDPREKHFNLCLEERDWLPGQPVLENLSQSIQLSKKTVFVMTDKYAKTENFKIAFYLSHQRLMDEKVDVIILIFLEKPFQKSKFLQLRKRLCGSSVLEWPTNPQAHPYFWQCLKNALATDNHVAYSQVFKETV
Text: HEK293-Blue-hTLR-7 Cells Assay
as §1, with “HEK293-Blue-hTLR-7” for “HEK293-Blue-hTLR-8”, “hkb-htlr7,” for “hkb-htlr8,”, “TLR7” for “TLR8”, “hTLR7” for “hTLR8”, “TLR7.” for “TLR8.”
as §2, with “HEK293-Blue-hTLR7” for “HEK293-Blue-hTLR8”, “250,000˜450,000” for “250,000-450,000”, “HEK293-Blue-hTLR-7” for “HEK293-Blue-hTLR-8”, “TLR7” for “TLR8”, “TLR7 agonist (Tsuneyasu Kaisho and Takashi Tanaka, Trends in Immunology, Volume 29, Issue 7, July 2008, Pages 329. sci; Hiroaki Hemmi et al, Nature Immunology 3, 2002, 196-200).” for “TLR8 agonist.”
as §3

CC[C@H](O)[C@@H]1C[C@@H]([C@@H](C)NC)[C@H](n2c(=O)sc3c(=O)[nH]c(N)nc32)O1 [Example 2, 5-Amino-3-[(2R,3S,5S)-5-[(1S)-1-hydroxypropyl]-3-[(1R)-1-(methylamino)ethyl]tetrahydrofuran-2-yl]-6H-thiazolo[4,5-d]pyrimidine-2,7-dione]
EC50 (human TLR8): 27 µM
EC50 (human TLR7): 81 µM

CC[C@H](O)[C@@H]1C[C@@H]([C@@H](C)N(C)C)[C@H](n2c(=O)sc3c(=O)[nH]c(N)nc32)O1 [Example 8, 5-Amino-3-[(2R,3S,5S)-3-[(1R)-1-(dimethylamino)ethyl]-5-[(1S)-1-hydroxypropyl]tetrahydrofuran-2-yl]-6H-thiazolo[4,5-d]pyrimidine-2,7-dione]
EC50 (human TLR8): 185 µM
EC50 (human TLR7): 82 µM

CC[C@H](O)[C@@H]1C[C@@H]([C@@H](C)NCc2ccccc2)[C@H](n2c(=O)sc3c(=O)[nH]c(N)nc32)O1 [Example 5, 5-Amino-3-[(2R,3S,5S)-3-[(1R)-1-(benzylamino)ethyl]-5-[(1S)-1-hydroxypropyl]tetrahydrofuran-2-yl]-6H-thiazolo[4,5-d]pyrimidine-2,7-dione]
EC50 (human TLR8): 85 µM
EC50 (human TLR7): 3.7 µM

CCCN[C@H](C)[C@@H]1C[C@@H]([C@@H](O)CC)O[C@H]1n1c(=O)sc2c(=O)[nH]c(N)nc21 [Example 3, 5-Amino-3-[(2R,3S,5S)-5-[(1S)-1-hydroxypropyl]-3-[(1R)-1-(propylamino)ethyl]tetrahydrofuran-2-yl]-6H-thiazolo[4,5-d]pyrimidine-2,7-dione]
EC50 (human TLR8): 125 µM
EC50 (human TLR7): 7.7 µM

CC[C@H](O)[C@@H]1C[C@@H]([C@H](C)NCc2ccccc2)[C@H](n2c(=O)sc3c(=O)[nH]c(N)nc32)O1 [Example 7, 5-Amino-3-[(2R,3S,5S)-3-[(1S)-1-(benzylamino)ethyl]-5-[(1S)-1-hydroxypropyl]tetrahydrofuran-2-yl]-6H-thiazolo[4,5-d]pyrimidine-2,7-dione]
EC50 (human TLR8): 2.2 µM
EC50 (human TLR7): 3.4 µM

CC[C@H](O)[C@@H]1C[C@@H]([C@H](C)NC)[C@H](n2c(=O)sc3c(=O)[nH]c(N)nc32)O1 [Example 6, 5-Amino-3-[(2R,3S,5S)-5-[(1S)-1-hydroxypropyl]-3-[(1S)-1-(methylamino)ethyl]tetrahydrofuran-2-yl]-6H-thiazolo[4,5-d]pyrimidine-2,7-dione]
EC50 (human TLR8): 4 µM
EC50 (human TLR7): 250 µM

CC[C@H](O)[C@@H]1C[C@@H]([C@H](C)N)[C@H](n2c(=O)sc3c(=O)[nH]c(N)nc32)O1 [Example 1-A, 5-Amino-3-[(2R,3S,5S)-3-[(1S)-1-aminoethyl]-5-[(1S)-1-hydroxypropyl]tetrahydrofuran-2-yl]-6H-thiazolo[4,5-d]pyrimidine-2,7-dione]
EC50 (human TLR8): 1.3 µM
EC50 (human TLR7): 75 µM

CC[C@H](O)[C@@H]1C[C@@H]([C@@H](C)N)[C@H](n2c(=O)sc3c(=O)[nH]c(N)nc32)O1 [Example 1-B, 5-amino-3-[(2R,3S,5S)-3-[(1R)-1-aminoethyl]-5-[(1S)-1-hydroxypropyl]tetrahydrofuran-2-yl]-6H-thiazolo[4,5-d]pyrimidine-2,7-dione]
EC50 (human TLR8): 55 µM
EC50 (human TLR7): 101 µM

CC[C@H](O)[C@@H]1C[C@@H]([C@@H](C)NC2CC2)[C@H](n2c(=O)sc3c(=O)[nH]c(N)nc32)O1 [Example 4, 5-Amino-3-[(2R,3S,5S)-3-[(1R)-1-(cyclopropylamino)ethyl]-5-[(1S)-1-hydroxypropyl]tetrahydrofuran-2-yl]-6H-thiazolo[4,5-d]pyrimidine-2,7-dione]
EC50 (human TLR8): 94 µM
EC50 (human TLR7): 3.5 µM
